Test results taken from article PMC8559303 (European Journal of Medicinal Chemistry, 2021).

Tested on: SARS-CoV-2
Format: cell-based
Conditions: 200 μM, Vero E6, CCK8

Row | Compound | protection on cells from death caused by viral infection [%]
1 | CCN1Cc2cc(OC)c(OC)cc2-c2cccc(N)c21 [Compound 12, 5-Ethyl-8,9-dimethoxy-5,6-dihydrophenanthridin-4-amine] | ~100
2 | CCN1Cc2cc(OC)c(OC)cc2-c2cccc(NC(=O)C(F)(F)F)c21 [Compound 16, N-(5-Ethyl-8,9-dimethoxy-5,6-dihydrophenanthridin-4-yl)-2,2,2-trifluoroacetamide] | ~100
